The target in one experiment is BTK recombinant protein (Homo sapiens (Human), UniProt Q06187). The experiment in a line: Determination of biochemical BTK (Z'-LYTE kinase assay). Particulars: 32 μM ATP.
The subject of experiment [1] is rat arthritis model induced by type II collagen. The experiment in a line: Rat arthritis model induced by type II collagen (CIA), paw volume. In kind it is in vivo. The note with it: for inhibition ratio of area under the curve (IRAUC) of paw swelling: Day 13 to Day 19. The protocol:
An appropriate amount of bovine type II collagen (CII, Chondrex (Redmond, WA, USA), Cat #20021) was weighed and dissolved in 0.1 mole of acetic acid (SPGC Sinopharm Chemical Reagent Co., Ltd (Shanghai, P.R. China), Cat #: 10000218.), which was formulated into a solution with a concentration of 6 mg/mL, stirred at 4° C. overnight, and added with an equal volume of Freund's incomplete adjuvant (Sigma-Aldrich. (St. Louis, MO, USA), Cat #: SLBW0366.), fully emulsified to prepare an emulsion with a CII concentration of 3 mg/mL.
Female Lewis rats were purchased from Beijing Vital River Laboratory Animal Technology Co., Ltd. (certificate number 20200928Aazz0619000579, initial body weight of 110-130 grams), and 6 rats were randomly selected as a normal group; and all of the remaining rats were immunized. In the first immunization on day 0, the rats except those in the normal group were anesthetized with isoflurane (Hebei Yipin Pharmaceutical Co., Ltd., Lot: C002170601.), and then disinfected with 75% alcohol, and 0.2 mL of emulsion was injected intradermally at the base of the tail thereof. A second challenge was carried out on day 7, and 0.2 mL of emulsion was intradermally injected using the same method. Once the animals developed symptoms on day 10, the incidence conditions thereof were closely monitored.
After grouping, the normal group was not administered, and the rats in the other groups were administered with the control vehicle, 0.25 mg/kg and 4 mg/kg of the reference GDC-0853, and each dose of compound 1 orally once a day until the end of the experiment.
The paw volume was measured on day 10 after immunization, and the left and right hind paw volumes (V) were measured every day after the paw volume increase was detected.
The arthrosis paw volumes of the left and right hind limbs of each animal were measured, and the average paw volume (APV) was calculated according to the following formula:
Average paw volume APV=(Vleft+Vright)/2
The average arthrosis paw volume of each animal before administration was used as the baseline (or considered […] of inflammation). The averaged paw swelling (APS) of each animal is calculated according to the following formula, wherein, APVd1 is the average paw volume of the animal administered on day 1, and APVdt is the average paw volume of the animal administered on day t:
The averaged paw swelling APSdt=(APVdt−APVd1)
The area under the curve (AUC) of the average paw volume swelling is the area under the curve of the arthrosis score swelling calculated by the trapezoid method, and the calculation formula is:
AUCAPS=½×(APSd1+APSd2)×(d2−d1)+½×(APSd2+APSd3)×(d3−d2)+ . . . +½×(APSdn+APSd(n-1))×(dn−dn-1).
Inhibition ratio IRAUC%=(Mean AUCAPS in the model group−AUCAPS in the drug-treated group)/(Mean AUCAPS in the model group−Mean AUCAPS in the normal group)×100%.

BTK recombinant protein, sequence (Q06187 whole entry): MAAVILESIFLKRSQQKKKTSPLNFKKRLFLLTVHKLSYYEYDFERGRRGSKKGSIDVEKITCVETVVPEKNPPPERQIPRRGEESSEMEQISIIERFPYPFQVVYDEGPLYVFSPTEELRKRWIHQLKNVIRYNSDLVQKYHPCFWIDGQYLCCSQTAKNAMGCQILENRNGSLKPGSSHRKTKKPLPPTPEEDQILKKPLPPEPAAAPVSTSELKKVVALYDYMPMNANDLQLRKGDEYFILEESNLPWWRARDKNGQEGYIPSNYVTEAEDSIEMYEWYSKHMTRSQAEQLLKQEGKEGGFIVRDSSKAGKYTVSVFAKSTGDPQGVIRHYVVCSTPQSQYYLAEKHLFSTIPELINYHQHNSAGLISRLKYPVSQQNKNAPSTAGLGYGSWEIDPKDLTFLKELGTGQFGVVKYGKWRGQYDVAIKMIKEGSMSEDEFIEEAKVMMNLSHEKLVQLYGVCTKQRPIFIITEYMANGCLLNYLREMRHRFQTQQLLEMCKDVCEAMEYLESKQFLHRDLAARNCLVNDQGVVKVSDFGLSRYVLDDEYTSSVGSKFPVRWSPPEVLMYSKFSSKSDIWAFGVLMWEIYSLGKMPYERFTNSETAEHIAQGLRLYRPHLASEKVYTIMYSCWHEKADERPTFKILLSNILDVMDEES

Usually IC50 stands for the point on the concentration scale where inhibition reaches its midpoint. On to `C[C@H]1CN(C2COC2)C[C@H](C)N1c1ccc(Nc2cc(-c3ccnc(-n4ccn5c6c(cc5c4=O)CC(C)(C)C6)c3CO)cn(C)c2=O)nc1` [Compound 1, 2-(5-((5-((2S,6S)-2,6-dimethyl-4-(oxetan-3-yl)piperazin-1-yl)pyridin-2-yl)amino)-3′-(hydroxymethyl)-1-methyl-6-oxo-1,6-dihydro-[3,4′-bipyridin]-2′-yl)-7,7-dimethyl-7,8-dihydro-2H-cyclopenta[4,5]pyrrolo[1,2-a]pyrazin-1(6H)-one], for which, on BTK recombinant protein, the IC50 was found to be 10 nM. Also, the “inhibition ratio of area under the curve (IRAUC) of paw swelling” value is 76.2% in experiment [1] (0.06 mg/kg oral QD), 83.1% in experiment [1] (0.25 mg/kg oral QD) and 200.2% in experiment [1] (4 mg/kg oral QD). Further, the “effect on paw volume compared with vehicle control group” value in experiment [1] (0.25 mg/kg oral QD) and in experiment [1] (4 mg/kg oral QD) was “significantly increase the continuous improvement of paw volume swelling” throughout. The compound also came in with a minimum effective dose in experiment [1] (oral QD, paw swelling) of 0.06 mg/kg/day.

The record behind these values is US20230382916A1, “HETEROARYL HETEROCYCLIC COMPOUNDS AND USES THEREOF” (HUTCHISON MEDIPHARMA LIMITED, priority 2020, published 2023).
